# Laboratory results from patent US8008021B2, “N-terminal truncation of cardiac troponin subunits and their roles in cardiovascular disease” (Evanston Northwestern Healthcare, priority 2006, dated 2011).
# Molecular target: T1, myofibril associated μ-calpain (Mus musculus, UniProt O35350)
# T1 construct: To test whether endogenous calpain in the cardiac muscle contributes to TnT NH2-terminal modification; from tissue
# T1 sequence (O35350 1-713): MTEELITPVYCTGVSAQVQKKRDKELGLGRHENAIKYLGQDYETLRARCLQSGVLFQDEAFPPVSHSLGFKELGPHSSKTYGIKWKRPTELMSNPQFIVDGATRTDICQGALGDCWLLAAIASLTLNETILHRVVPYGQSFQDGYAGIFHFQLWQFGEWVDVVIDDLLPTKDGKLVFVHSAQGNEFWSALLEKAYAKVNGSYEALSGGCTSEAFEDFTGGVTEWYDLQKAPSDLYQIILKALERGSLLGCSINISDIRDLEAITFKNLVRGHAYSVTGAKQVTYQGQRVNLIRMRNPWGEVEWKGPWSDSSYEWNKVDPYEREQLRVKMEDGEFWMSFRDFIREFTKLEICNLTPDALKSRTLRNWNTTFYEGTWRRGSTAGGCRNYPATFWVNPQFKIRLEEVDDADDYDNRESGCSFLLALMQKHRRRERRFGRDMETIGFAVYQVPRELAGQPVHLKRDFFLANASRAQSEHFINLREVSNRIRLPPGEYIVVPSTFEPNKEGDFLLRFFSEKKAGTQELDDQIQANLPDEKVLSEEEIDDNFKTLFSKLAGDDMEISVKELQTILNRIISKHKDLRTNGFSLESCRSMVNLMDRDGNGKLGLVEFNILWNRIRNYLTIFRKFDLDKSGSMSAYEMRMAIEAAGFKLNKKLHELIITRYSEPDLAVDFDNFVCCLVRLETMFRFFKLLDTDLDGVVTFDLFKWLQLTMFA
# T1 sequence (O88456 1-268 partner): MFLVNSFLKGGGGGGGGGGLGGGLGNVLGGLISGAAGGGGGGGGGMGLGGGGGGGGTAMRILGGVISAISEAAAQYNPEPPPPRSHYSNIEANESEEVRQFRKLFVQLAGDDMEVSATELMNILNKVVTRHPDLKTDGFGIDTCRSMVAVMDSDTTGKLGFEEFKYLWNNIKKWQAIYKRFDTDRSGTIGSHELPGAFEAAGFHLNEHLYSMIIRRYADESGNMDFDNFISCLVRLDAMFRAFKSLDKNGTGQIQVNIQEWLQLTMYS
# Test: Calpain inhibition of cTnT-ND production in TRITON X-100 extracted ventricular muscle strips (Western blot densitometry)
# Assay type: biochemical
# Conditions: calpain specific inhibitor; TRITON X-100 extracted mouse cardiac muscle strips
# Method: SDS-PAGE and Western blotting. Ventricular muscle tissues or myocytes were homogenized in Laemmli SDS-PAGE sample buffer containing 2% SDS, heated at 80° C. for 5 min, and clarified by centrifugation. Total protein extracts were resolved by 14% Laemmli gel with an acrylamide:bisacrylamide ratio of 180:1 (low cross linker) or by 15% Laemmli gel with an acrylamide:bisacrylamide ratio of 29:1 (high cross linker). The gels were stained with Coomassie Brilliant Blue R250 to reveal the resolved protein bands. Duplicate gels were electrically blotted to nitrocellulose membranes, as described previously (21). After blocking in Tris-buffered saline (TBS) containing 1% bovine serum albumin (BSA), the membrane was incubated with anti-TnT mAbs CT3, 2C8, or polyclonal antibody RATnT. The membranes were then washed with high stringency using TBS containing 0.5% TRITON® X-100 and 0.05% SDS, incubated with alkaline phosphatase-conjugated anti-mouse IgG or anti-rabbit IgG second antibodies (Sigma), washed again, and developed in 5-bromo-4-chloro-3-indolylphosphate/nitro blue tetrazolium substrate solution, as described previously (21).
# TRITON® X-100 extraction of ventricular muscle strips. In an ice container, ventricular muscle was cut with a sharp razor blade into fine pieces approximately the size of isolated trabeculae. The muscle strips were washed in relaxing solution containing […], 2 mM MgCl2, 2 mM EGTA, 10 mM Tris, 0.5 mM DTT, 0.1 mM PMSF and 2 mM Na4P2O7. After centrifugation at 2,800×g at 4° C. for 15 min, the pellet was skinned in relaxing solution plus 0.5% (w/w) TRITON® X-100 at 4° C. with rotation for 10 min. After centrifugation at 14,000×g at 4° C. for 20 min, the pellet was suspended in relaxing solution without TRITON® X-100 and incubated at 37° C. with rotation. Samples were collected at a series of time points for SDS-PAGE and Western blotting to examine the modifications of cTnT and other myofibrillar proteins.
# Calpain inhibition. To test whether endogenous calpain in the cardiac muscle contributes to TnT NH2-terminal modification, several different calpain inhibitors were applied to the TRITON® X-100 extraction procedure. […] TRITON® X-100 treatment of mouse ventricular muscle strips was carried out as above in the presence or absence of 100 μM hydrogen peroxide and the effect on cTnT modification was examined by Western blotting.
# The effects of two cell membrane-permissible nonpeptide calpain inhibitors, PD 150606 and PD 151746 (Calbiochem), were also tested. […] PD 150606 and […] were separately added to the relaxing solution before TRITON® X-100 treatment and incubated with the minced ventricular muscle at 4° C. for 10 minutes to allow the inhibitor to penetrate cell membrane and bind to calpain. After TRITON® X-100 extraction, samples were collected for SDS-PAGE and Western blotting to examine the effect on cTnT modification.
Structure (SMILES),cTnT-ND production decreased to [%],decrease in cTnT-ND72-291 production
O=C(O)/C(S)=C/c1c[nH]c2ccc(F)cc12 [PD151746],50,approximately 50%
O=C(O)/C(S)=C/c1ccc(I)cc1 [PD150606],63,approximately 37%
